What was measured:
[1] = target: T1, FGFR1 (Homo sapiens, UniProt P11362); test: Kinase binding assay (kinase-tagged T7 phage, affinity beads, qPCR), Kd; conditions: read-out: FGFR1 (Kd nM)
T1 construct: made in house; host or cells: E. coli (BL21-derived), T7 phage
In short: (§1)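 Competition binding of compounds against kinase-tagged T7 phage captured on immobilised biotinylated ligand beads; bead-bound kinase quantified by qPCR of eluates. 11-point 3-fold dilution, 0.9% DMSO final; Kd from Hill fit with slope fixed at −1.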

[2] = target: T2, FGFR2 (Homo sapiens, UniProt P21802); test: as above; conditions: read-out: FGFR2 (Kd nM)
T2 construct: made in house; host or cells: E. coli (BL21-derived), T7 phage
In short: as §1

[3] = target: T3, FGFR3 (Homo sapiens, UniProt P22607); test: as above; conditions: read-out: FGFR3 (Kd nM)
T3 construct: made in house; host or cells: E. coli (BL21-derived), T7 phage
In short: as §1

[4] = target: T4, FGFR3 (V555M) (Homo sapiens, UniProt P22607, V555M); test: as above; conditions: V555M mutant; read-out: FGFR3 (V555M) (Kd nM)
T4 construct: made in house; host or cells: E. coli (BL21-derived), T7 phage
In short: as §1

[5] = target: T5, FGFR4 (Homo sapiens, UniProt P22455); test: as above; conditions: read-out: FGFR4 (Kd nM)
T5 construct: made in house; host or cells: E. coli (BL21-derived), T7 phage
In short: as §1

[6] = test system: KATO-III cell line (FGFR2 amplification); test: Cancer cell line cell viability assay (Cell Titer-Glo), 72 hr; format: cell-based; conditions: Homo sapiens, KATO III
In short: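 Intracellular ATP was measured by Cell Titer-Glo 2.0 luminescence after cells were incubated with compound dilutions (top 3 μM, 4-fold, 9 doses). Values were expressed relative to DMSO-treated cells and IC50 was calculated from a variable-slope dose-response curve.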

[7] = test system: KG-1 cell line (FGFR 1-fusion); test: as above; format: cell-based; conditions: Homo sapiens, KG-1, KG-1 cell line (FGFR1-fusion)
In short: (§2)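 5,000-20,000 cells/well o/n; cpd 9-pt 4x dil from 3 μM, n=3; 37° C/5% CO2; CTG 2.0 lumi; % DMSO ctrl; 4PL IC50.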

[8] = test system: RT112/84 cell line (FGFR3-fusion); test: as above; format: cell-based; conditions: Homo sapiens, RT112/84, RT112/84 cell line (FGFR3-fusion)
In short: as §2

[9] = test system: HuH7 cell line (FGF19 amplification); test: Cancer cell line cell viability assay (Cell Titer-Glo), 120 hr; format: cell-based; conditions: Homo sapiens, Huh-7
In short: as §2

[10] = test system: MDA-MB-453 cell line (FGFR4-Y367C); test: as above; format: cell-based; conditions: Homo sapiens
In short: as §2

T4 sequence (P22607 23-806 V555M): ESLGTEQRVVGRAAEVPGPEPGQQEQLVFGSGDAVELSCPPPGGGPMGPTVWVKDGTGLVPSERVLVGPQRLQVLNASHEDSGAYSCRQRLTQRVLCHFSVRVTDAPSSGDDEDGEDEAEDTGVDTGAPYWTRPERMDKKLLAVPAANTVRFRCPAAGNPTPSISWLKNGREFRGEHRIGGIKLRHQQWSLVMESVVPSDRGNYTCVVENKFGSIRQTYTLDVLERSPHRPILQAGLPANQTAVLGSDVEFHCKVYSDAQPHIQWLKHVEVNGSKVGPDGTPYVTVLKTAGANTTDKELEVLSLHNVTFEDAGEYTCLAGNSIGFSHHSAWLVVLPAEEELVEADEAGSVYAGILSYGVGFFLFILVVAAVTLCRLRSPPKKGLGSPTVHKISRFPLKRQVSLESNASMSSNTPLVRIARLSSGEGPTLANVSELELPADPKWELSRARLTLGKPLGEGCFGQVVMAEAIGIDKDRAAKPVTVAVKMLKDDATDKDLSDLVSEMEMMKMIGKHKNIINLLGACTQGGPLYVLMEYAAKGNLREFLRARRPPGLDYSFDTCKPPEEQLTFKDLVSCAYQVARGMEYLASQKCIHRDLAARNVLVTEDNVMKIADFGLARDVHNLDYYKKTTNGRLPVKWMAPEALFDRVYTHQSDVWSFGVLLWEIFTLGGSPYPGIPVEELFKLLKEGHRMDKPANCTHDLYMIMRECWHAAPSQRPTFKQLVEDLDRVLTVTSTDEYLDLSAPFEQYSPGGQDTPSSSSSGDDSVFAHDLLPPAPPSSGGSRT
T2 sequence (P21802 22-821): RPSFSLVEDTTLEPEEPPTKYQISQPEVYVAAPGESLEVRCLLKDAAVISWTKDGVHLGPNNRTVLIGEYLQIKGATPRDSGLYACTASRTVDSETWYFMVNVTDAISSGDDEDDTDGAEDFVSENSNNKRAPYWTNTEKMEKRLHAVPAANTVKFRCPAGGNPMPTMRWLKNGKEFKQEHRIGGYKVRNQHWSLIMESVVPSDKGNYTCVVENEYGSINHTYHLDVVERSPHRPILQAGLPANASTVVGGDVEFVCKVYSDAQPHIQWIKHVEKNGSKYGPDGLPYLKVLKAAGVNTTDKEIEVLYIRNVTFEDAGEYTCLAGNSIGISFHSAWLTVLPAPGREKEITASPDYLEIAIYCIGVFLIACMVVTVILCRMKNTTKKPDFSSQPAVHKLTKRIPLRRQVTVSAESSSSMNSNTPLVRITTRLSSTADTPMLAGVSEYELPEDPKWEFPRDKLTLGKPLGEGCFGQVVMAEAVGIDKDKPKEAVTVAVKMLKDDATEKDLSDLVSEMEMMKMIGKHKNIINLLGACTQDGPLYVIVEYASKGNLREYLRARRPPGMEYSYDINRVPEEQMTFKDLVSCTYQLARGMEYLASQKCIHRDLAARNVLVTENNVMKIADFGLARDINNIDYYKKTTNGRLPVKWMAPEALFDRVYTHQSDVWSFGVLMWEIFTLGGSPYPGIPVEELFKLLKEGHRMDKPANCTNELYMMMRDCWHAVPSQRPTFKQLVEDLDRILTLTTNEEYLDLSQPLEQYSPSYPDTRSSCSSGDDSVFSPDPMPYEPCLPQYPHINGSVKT
T1 sequence (P11362 22-822): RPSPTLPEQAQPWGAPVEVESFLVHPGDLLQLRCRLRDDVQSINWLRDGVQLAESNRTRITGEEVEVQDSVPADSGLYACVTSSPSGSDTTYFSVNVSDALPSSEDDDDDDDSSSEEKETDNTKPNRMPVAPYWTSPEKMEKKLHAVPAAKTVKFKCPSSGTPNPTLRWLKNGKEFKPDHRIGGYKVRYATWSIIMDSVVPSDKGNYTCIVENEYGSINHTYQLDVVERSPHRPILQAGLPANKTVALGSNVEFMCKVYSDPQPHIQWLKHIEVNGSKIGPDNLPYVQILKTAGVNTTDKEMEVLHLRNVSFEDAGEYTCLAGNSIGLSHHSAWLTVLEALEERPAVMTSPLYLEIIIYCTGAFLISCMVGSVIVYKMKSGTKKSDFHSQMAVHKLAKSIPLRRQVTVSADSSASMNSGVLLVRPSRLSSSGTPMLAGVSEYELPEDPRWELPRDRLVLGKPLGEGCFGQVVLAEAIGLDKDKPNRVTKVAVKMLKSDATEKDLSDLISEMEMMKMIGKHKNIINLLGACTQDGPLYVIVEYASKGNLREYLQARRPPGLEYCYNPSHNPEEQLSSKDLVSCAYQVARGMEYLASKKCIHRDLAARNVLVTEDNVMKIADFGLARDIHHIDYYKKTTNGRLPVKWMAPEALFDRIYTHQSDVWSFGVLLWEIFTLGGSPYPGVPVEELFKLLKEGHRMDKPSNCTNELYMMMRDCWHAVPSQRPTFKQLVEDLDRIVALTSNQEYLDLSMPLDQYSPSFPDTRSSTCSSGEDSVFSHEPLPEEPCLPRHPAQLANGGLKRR
T3 sequence (P22607 23-806): as the sequence (P22607 23-806 V555M) above, with M533V counted along it
T5 sequence (P22455 22-802): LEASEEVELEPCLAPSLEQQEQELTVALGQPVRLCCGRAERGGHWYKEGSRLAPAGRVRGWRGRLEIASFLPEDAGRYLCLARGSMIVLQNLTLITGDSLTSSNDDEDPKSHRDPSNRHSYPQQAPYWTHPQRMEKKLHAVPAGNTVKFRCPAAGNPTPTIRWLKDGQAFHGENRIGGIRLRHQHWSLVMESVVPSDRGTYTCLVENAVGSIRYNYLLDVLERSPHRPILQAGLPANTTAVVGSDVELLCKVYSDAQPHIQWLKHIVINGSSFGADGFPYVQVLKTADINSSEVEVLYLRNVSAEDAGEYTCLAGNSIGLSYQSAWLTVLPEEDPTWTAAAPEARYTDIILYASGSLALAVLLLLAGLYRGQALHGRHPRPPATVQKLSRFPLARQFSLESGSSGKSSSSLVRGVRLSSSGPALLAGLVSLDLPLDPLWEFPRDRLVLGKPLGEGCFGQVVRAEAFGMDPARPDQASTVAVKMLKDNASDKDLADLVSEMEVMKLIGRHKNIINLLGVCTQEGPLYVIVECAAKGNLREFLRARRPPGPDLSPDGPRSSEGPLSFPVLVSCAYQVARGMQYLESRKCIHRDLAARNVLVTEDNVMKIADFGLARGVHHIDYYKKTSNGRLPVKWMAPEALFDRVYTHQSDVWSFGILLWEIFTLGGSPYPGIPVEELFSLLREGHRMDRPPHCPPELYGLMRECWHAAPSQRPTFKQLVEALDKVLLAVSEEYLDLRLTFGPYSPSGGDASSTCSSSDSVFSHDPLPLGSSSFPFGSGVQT

Row | Compound | Kd [1] [nM] | Kd [2] [nM] | Kd [3] [nM] | Kd [4] [nM] | Kd [5] [nM] | IC50 [6] [nM] | IC50 [7] [nM] | IC50 [8] [nM] | IC50 [9] [nM] | IC50 [10] [nM]
1 | C[C@@H](Oc1ccc2[nH]nc(-c3cnc(N4CC(C)(CP(C)(C)=O)C4)c(C#N)c3)c2c1)c1c(Cl)cncc1Cl [Example 6, (R)-5-(5-(1-(3,5-dichloropyridin-4-yl)ethoxy)-1H-indazol-3-yl)-2-(3-((dimethylphosphoryl)methyl)-3-methylazetidin-1-yl)nicotinonitrile] | 50 to 300 | 1 to 50 | 1 to 50 | 1 to 50 | 1 to 50 | 50 to 200 | > 1000 | 50 to 200 | 0.1 to 50 | 0.1 to 50
2 | COc1cc2[nH]nc(-c3cnc(N4CC(C)(NC(C)C)C4)c(C#N)c3)c2cc1O[C@H](C)c1c(Cl)cncc1Cl [Example 8, (R)-5-(5-(1-(3,5-Dichloropyridin-4-yl)ethoxy)-6-methoxy-1H-indazol-3-yl)-2-(3-(isopropylamino)-3-methylazetidin-1-yl)nicotinonitrile] | 1 to 50 | 1 to 50 | 1 to 50 | 1 to 50 | 1 to 50 | 50 to 200 | 50 to 200 | 0.1 to 50 | 0.1 to 50 | 0.1 to 50
3 | CNC1(C)CN(c2ncc(-c3n[nH]c4cc(OC)c(O[C@H](C)c5c(Cl)cncc5Cl)cc34)cc2C#N)C1 [Example 9, 5-[5-[(1R)-1-(3,5-dichloro-4-pyridyl)ethoxy]-6-methoxy-1H-indazol-3-yl]-2-[3-methyl-3-(methylamino)azetidin-1-yl]pyridine-3-carbonitrile] | 1 to 50 | 1 to 50 | 1 to 50 | 1 to 50 | 1 to 50 | 50 to 200 | 0.1 to 50 | 0.1 to 50 | 0.1 to 50 | 0.1 to 50
4 | COc1cc2[nH]nc(-c3cnc(N4CC(C)(NCC5CC5)C4)c(C#N)c3)c2cc1O[C@H](C)c1c(Cl)cncc1Cl [Example 14, 2-[3-(cyclopropylmethylamino)-3-methyl-azetidin-1-yl]-5-[5-[(1R)-1-(3,5-dichloro-4-pyridyl)ethoxy]-6-methoxy-1H-indazol-3-yl]pyridine-3-carbonitrile] | 1 to 50 | 1 to 50 | 1 to 50 | 1 to 50 | 1 to 50 | 50 to 200 | 50 to 200 | 0.1 to 50 | 0.1 to 50 | 0.1 to 50
5 | COc1cc2[nH]nc(-c3cnc(N4CC(C)(N5CCOCC5)C4)c(C#N)c3)c2cc1O[C@H](C)c1c(Cl)cncc1Cl [Example 16, (R)-5-(5-(1-(3,5-dichloropyridin-4-yl)ethoxy)-6-methoxy-1H-indazol-3-yl)-2-(3-methyl-3-morpholinoazetidin-1-yl)nicotinonitrile] | 1 to 50 | 1 to 50 | 1 to 50 | 1 to 50 | 1 to 50 | 50 to 200 | 50 to 200 | 0.1 to 50 | 0.1 to 50 | 0.1 to 50
6 | CC(C)NC1(CC#N)CN(c2ncc(-c3n[nH]c4ccc(O[C@H](C)c5c(Cl)cncc5Cl)cc34)cc2F)C1 [Example 150, (R)-2-(1-(5-(5-(1-(3,5-dichloropyridin-4-yl)ethoxy)-1H-indazol-3-yl)-3-fluoropyridin-2-yl)-3-(isopropylamino)azetidin-3-yl)acetonitrile] | 1 to 50 | – | 1 to 50 | – | – | 0.1 to 50 | 50 to 200 | 0.1 to 50 | 0.1 to 50 | 50 to 200
7 | C[C@@H](Oc1ccc2[nH]nc(-c3cnc(N4CC(CC#N)(NCC5CC5)C4)c(F)c3)c2c1)c1c(Cl)cncc1Cl [Example 151, 2-[3-(Cyclopropylmethyl-amino)-1-[5-[5-[(1R)-1-(3,5-dichloro-4-pyridyl)ethoxy]-1H-indazol-3-yl]-3-fluoro-2-pyridyl]azetidin-3-yl]acetonitrile] | 1 to 50 | – | 1 to 50 | – | – | 50 to 200 | 50 to 200 | 0.1 to 50 | 0.1 to 50 | 50 to 200
8 | CC(C)CNC1(C)CN(c2ccc(-c3n[nH]c4ccc(O[C@H](C)c5c(Cl)cncc5Cl)cc34)cn2)C1 [Example 224, (R)-1-(5-(5-(1-(3,5-dichloropyridin-4-yl)ethoxy)-1H-indazol-3-yl)pyridin-2-yl)-N-isobutyl-3-methylazetidin-3-amine] | 1 to 50 | 1 to 50 | 1 to 50 | 1 to 50 | 1 to 50 | 0.1 to 50 | 50 to 200 | 0.1 to 50 | – | 50 to 200
9 | CC[C@@H](C)NC1(C)CN(c2ccc(-c3n[nH]c4ccc(O[C@H](C)c5c(Cl)cncc5Cl)cc34)cn2)C1 [Example 225, 1-[5-[5-[(1R)-1-(3,5-dichloro-4-pyridyl)ethoxy]-1H-indazol-3-yl]-2-pyridyl]-3-methyl-N-[(1R)-1-meth-ylpropyl]azetidin-3-amine] | 1 to 50 | 1 to 50 | 1 to 50 | 1 to 50 | 1 to 50 | 0.1 to 50 | 50 to 200 | 0.1 to 50 | – | 50 to 200
10 | CCCNC1(C)CN(c2ccc(-c3n[nH]c4ccc(O[C@H](C)c5c(Cl)cncc5Cl)cc34)cn2)C1 [Example 227, 1-[5-[5-[(1R)-1-(3,5-dichloro-4-pyridyl)ethoxy]-1H-indazol-3-yl]-2-pyridyl]-3-methyl-N-propyl-azetidin-3-amine] | 1 to 50 | 1 to 50 | 1 to 50 | 1 to 50 | 1 to 50 | 0.1 to 50 | 50 to 200 | 0.1 to 50 | – | 50 to 200
11 | CC[C@H](C)NC1(C)CN(c2ccc(-c3n[nH]c4ccc(O[C@H](C)c5c(Cl)cncc5Cl)cc34)cn2)C1 [Example 228, 1-[5-[5-[(1R)-1-(3,5-dichloro-4-pyridyl)ethoxy]-1H-indazol-3-yl]-2-pyridyl]-3-methyl-N-[(1S)-1-meth-ylpropyl]azetidin-3-amine] | 1 to 50 | 1 to 50 | 1 to 50 | 1 to 50 | 1 to 50 | 0.1 to 50 | 50 to 200 | 0.1 to 50 | – | 50 to 200
12 | C[C@@H](Oc1ccc2[nH]nc(-c3ccc(N4CC(C)(N5C[C@@H]6C[C@H]5CO6)C4)nc3)c2c1)c1c(Cl)cncc1Cl [Example 229, (1S,4S)-5-(1-(5-(5-((R)-1-(3,5-dichloropyridin-4-yl)ethoxy)-1H-indazol-3-yl)pyridin-2-yl)-3-methylazetidin-3-yl)-2-oxa-5-aza-bicyclo[2.2.1]hep-tane] | 1 to 50 | 1 to 50 | 1 to 50 | 1 to 50 | 1 to 50 | 0.1 to 50 | 50 to 200 | 0.1 to 50 | – | 50 to 200
13 | C[C@@H](Oc1ccc2[nH]nc(-c3ccc(N4CC(C)(NCC5CC5)C4)nc3F)c2c1)c1c(Cl)cncc1Cl [Example 237, (R)—N-(cyclopropylmethyl)-1-(5-(5-(1-(3,5-dichloropyridin-4-yl)ethoxy)-1H-indazol-3-yl)-6-fluoropyridin-2-yl)-3-methylazetidin-3-amine] | 1 to 50 | 1 to 50 | 1 to 50 | 1 to 50 | 1 to 50 | 0.1 to 50 | 0.1 to 50 | 0.1 to 50 | – | 50 to 200
14 | COc1cc2[nH]nc(-c3cnc(N4CC[C@](C)(N)C4)c(C#N)c3)c2cc1O[C@H](C)c1c(Cl)cncc1Cl [Example 367, 2-((S)-3-amino-3-methylpyrrolidin-1-yl)-5-(5-((R)-1-(3,5-dichloropyridin-4-yl)ethoxy)-6-methoxy-1H-indazol-3-yl)nicotinonitrile] | 1 to 50 | 1 to 50 | 1 to 50 | – | 1 to 50 | 0.1 to 50 | 50 to 200 | 0.1 to 50 | 0.1 to 50 | 0.1 to 50
15 | COc1cc2[nH]nc(-c3cnc(N4CC[C@@](C)(N)C4)c(C#N)c3)c2cc1O[C@H](C)c1c(Cl)cncc1Cl [Example 369, 2-((R)-3-amino-3-methylpyrrolidin-1-yl)-5-(5-((R)-1-(3,5-dichloropyridin-4-yl)ethoxy)-6-methoxy-1H-indazol-3-yl)nicotinonitrile] | 1 to 50 | 1 to 50 | 1 to 50 | – | 1 to 50 | 0.1 to 50 | 50 to 200 | 0.1 to 50 | 0.1 to 50 | 0.1 to 50
